Data on 13 compounds can be found in US5827881A, “Diesters of carbonic acid endowed with antiviral and anti-inflammatory activity” (Italfarmaco S.P.A., priority 1994, dated 1998).

Where two headings read alike, the source gives them in different places.

In assay [1] the test system is human TNF (Tumor Necrosis Factor) citotoxicity on LM cells (murine fibroblast strain). Kind of assay: In vitro anti-inflammatory activity: inhibition of the citotoxicity induced by human TNF on a murine fibroblast strain (LM cells, MTT). It is filed as cell-based. Conditions: Mus musculus; for inhibition at 100 µg/mL: compound 100 μg/ml; for inhibition at 10 µg/mL: compound 10 μg/ml. The protocol:
In vitro anti-inflammatory activity
In a 96-square bottomed wells plate 15.000 LM cells (Rubin. B. Y. et al., J.Exp. Med., 162:1099, 1985) were inseminated each well (100 μl) in complete RPMI medium (Flow Lab., Hertz. GB). Each well was added with 50 μl of a solution of a compound to be tested at the due concentration, and 50 μl of a solution of TNF at the due concentration. After 2 days, each well was added with 40 μl of a solution of MTT [3-(4,5-dimethylthiazol-2-yl)-2,5-diphenyltetrazolium bromide], and the whole was incubated at 37° C. for 4 hours, then the content of the wells was sucked up, added with 200 μl/well of dimethylsulfoxide to dissolve the blue crystals of formazane formed because of the cell activity, then the optical density values were read by a reader with a 570 nm filter. […] The optical density values are directly proportional to the inhibitory activity performed by the compounds of the invention against TNF.

For assay [2], the system named is 8E51 Cells permanently infected with LAV (Lymphotropic Adenopathy Virus) and MOLT3 cells. Description: Antiviral activity: syncytia formation inhibition (8E51 cells infected with LAV co-incubated with MOLT3 cells). It is filed as cell-based. Conditions: Homo sapiens, MOLT-3. The protocol:
The antiviral activity of the compound of the invention was evaluated by the test of the syncytia formation inhibition, according to the procedure reported hereinbelow.
8E51 Cells permanently infected with LAV (Lymphotropic Adenopathy Virus) defective of the po1 gene, and MOLT3 cells (CD4+ human T-lymphoblastoid strain), cultured in RPMI 1640 medium with 10% calf fetal serum were co-incubated in a ratio of 1:2, at a concentration of 10^6 cells/ml, and put in 96-conic shaped bottom wells Microtiter plates. The cells were added with some compounds representative of the invention suitably diluted and, after 30 minutes at 37° C., the whole was centrifuged to obtain a sediment. The […] was incubated for further 2 hours at 37° C., then put in square-bottomed wells. The syncytia (10-100 times bigger than the starting cells) were counted with an optic microscope. In the controls about 100-200 syncytia/well could be seen.

Assay [3] relates to Carrageenan-induced oedema. Description: Carrageenan-induced oedema (acute inflammation). Conditions: oral; for % of inhibition (reduction of the oedema), 3 hours: 3 hours after carrageenan; for % of inhibition (reduction of the oedema), 5 hours: 5 hours after carrageenan; for % of inhibition (reduction of the oedema), 1 hour: 1 hour after carrageenan. The class given is in vivo. The protocol: In vivo anti-inflammatory activity: models of acute inflammation
A. Carrageenan-induced oedema The test is disclosed, inter alia, by Blake, D. R. et al., Ann. Rheum. Dis., 43, 89-93, 1983. The animals were orally administered with 10 or 30 mg/kg doses of the compounds of the invention 1 hour before the injection of carrageenan. The condition of the oedema was checked 1, 3 and 5 hours after said injection. In Table 3 the percentage of reduction of the oedema is set forth.
A general note: The carrageenan paw model is a standard test of acute inflammation.

The mark [4] stands for this setting: TNF 1 ng/ml, read-out: % of inhibition, TNF (1 ng/ml).
Where [5] appears, read: TNF 5 ng/ml, read-out: % of inhibition, TNF (5 ng/ml).

As for `CC(C)N(CCCCOC(=O)OCCCCN(C(C)C)C(C)C)C(C)C` [18, D]], the inhibition at 100 µg/mL in assay [1] (setting [4]) was found to be 17%. For the same compound, in assay [2], the inhibition at 50 µM came to 55% and the inhibition at 100 µM stood at 63%. In assay [3] (30 mg/kg), the “% of inhibition (reduction of the oedema), 3 hours” value stood at 27% and the “% of inhibition (reduction of the oedema), 5 hours” value is listed as 28.7%.

Turning to `CCCCN(CCCC)CCCC(C)OC(=O)OC(C)CCCN(CCCC)CCCC` (stereo not drawn) [10, C]], in assay [1] (setting [4]), the inhibition at 10 µg/mL worked out at 100% and the inhibition at 100 µg/mL was determined as 100%. Moreover, in assay [1] (setting [5]), the inhibition at 10 µg/mL was 73% and the inhibition at 100 µg/mL is 95%. Besides, in assay [2], the inhibition at 25 µM was 29.5% and the inhibition at 50 µM was 45.5%. In assay [3] (10 mg/kg), the “% of inhibition (reduction of the oedema), 1 hour” value is given as 26.1% and the “% of inhibition (reduction of the oedema), 3 hours” value was found to be 10%. In assay [3] (30 mg/kg), the “% of inhibition (reduction of the oedema), 1 hour” value stood at 13%; the “% of inhibition (reduction of the oedema), 3 hours” value worked out at 43%; the “% of inhibition (reduction of the oedema), 5 hours” value is 31.3%.

As to `CCCCN1CCC(COC(=O)OCC2CCN(CCCC)CC2)CC1` [1, E]], the inhibition at 10 µg/mL in assay [1] (setting [4]) worked out at 45%. Further, in assay [2], the inhibition at 25 µM was found to be 56.5%, the inhibition at 50 µM came out at 70% and the inhibition at 100 µM is 79%. Also, in assay [2] (200 μM), the inhibition at 200 µM is 97%.

Turning to `CN(CCCOC(=O)OCCCN(C)Cc1ccccc1)Cc1ccccc1` [16, D]], the inhibition at 100 µg/mL in assay [1] (setting [5]) came out at 21%. Also, the inhibition at 100 µM in assay [2] came to 27%.

Take `CCN(CC)CCCCCCOC(=O)OCCCCCCN(CC)CC` [13, E]]: in assay [1] (setting [4]), the inhibition at 10 µg/mL came to 55% and the inhibition at 100 µg/mL came to 45%. Besides, in assay [1] (setting [5]), the inhibition at 100 µg/mL is 21%. In assay [2], the inhibition at 50 µM is 27.5% and the inhibition at 100 µM came to 43.5%.

Regarding `CCCCN(CCCC)CCCOC(=O)OC(C)CCCN(CCCC)CCCC` (stereo not drawn) [12, B]], the values for the inhibition at 10 µg/mL in assay [1] (setting [4]) and in assay [1] (setting [5]) were 68% and 50%, respectively. Besides, the inhibition at 100 µg/mL came out at 65% in assay [1] (setting [4]) and 62% in assay [1] (setting [5]).

For the compound `CCCCN(CCCC)[C@@H]1CCCC[C@H]1OC(=O)OCC1CCCN(C)C1` (stereo partly drawn) [5, C]], in assay [1] (setting [4]), the inhibition at 10 µg/mL came out at 73% and the inhibition at 100 µg/mL was determined as 36%. In addition, in assay [1] (setting [5]), the inhibition at 10 µg/mL came out at 21% and the inhibition at 100 µg/mL came out at 30%. Further, in assay [2], the inhibition at 50 µM was 22% and the inhibition at 100 µM was 23%.

Turning to `CCCCN(CCCC)CCCOC(=O)OCCCN(CCCC)CCCC` [19, D]], in assay [1] (setting [4]), the inhibition at 10 µg/mL was 17% and the inhibition at 100 µg/mL was determined as 48%.

Regarding `CCCCN(CCCC)CCC(C)OC(=O)OC(C)CCN(CCCC)CCCC` (stereo not drawn) [8, D]], in assay [1] (setting [4]), the inhibition at 10 µg/mL came out at 100% and the inhibition at 100 µg/mL came out at 100%. In addition, in assay [1] (setting [5]), the inhibition at 10 µg/mL amounted to 56% and the inhibition at 100 µg/mL is 82%. Also, the inhibition at 12.5 µM in assay [2] (12.5 μM) stood at 33%. For the same compound, in assay [2], the inhibition at 25 µM worked out at 49%, the inhibition at 50 µM worked out at 55% and the inhibition at 100 µM turned out to be 27%.

With `CCCCN(CCCC)CCCC(CC)OC(=O)OC(CC)CCCN(CCCC)CCCC` (stereo not drawn) [38, E]], in assay [3] (10 mg/kg), the “% of inhibition (reduction of the oedema), 1 hour” value is on record as 22.5%; the “% of inhibition (reduction of the oedema), 3 hours” value amounted to 15%; the “% of inhibition (reduction of the oedema), 5 hours” value is recorded as 20.5%.

On to `CCCCN(CCCC)[C@@H]1CCCC[C@H]1OC(=O)OCc1cccnc1` (relative stereo) [4, C]], for which the inhibition at 100 µg/mL in assay [1] (setting [4]) came out at 23%. For the same compound, in assay [2], the inhibition at 50 µM was 18% and the inhibition at 100 µM was found to be 28%.

Take `CCCCN(CCCC)CCCCCOC(=O)OCCCCCN(CCCC)CCCC` [14, E]]: the results for the inhibition at 100 µg/mL in assay [1] (setting [4]) and in assay [1] (setting [5]) were 100% and 59%, respectively.

In the case of `O=C(OCCCN(Cc1ccccc1)Cc1ccccc1)OCCCN(Cc1ccccc1)Cc1ccccc1` [17, D]], the inhibition at 100 µM in assay [2] was 19%.
